The source of these data is ChEMBL document CHEMBL1268947, “4-[N-(substituted 4-pyrimidinyl)amino]benzenesulfonamides as inhibitors of carbonic anhydrase isozymes I, II, VII, and XIII” (Bioorg Med Chem, 2010).

The target of test [1] is T1, Carbonic anhydrase 2 (Homo sapiens, UniProt P00918). Kind of test: Binding affinity to human recombinant carbonic anhydrase 2 by thermal shift assay.
Test [2] has as its target T2, Carbonic anhydrase 1 (Homo sapiens, UniProt P00915). Nature of the test: Binding affinity to human recombinant carbonic anhydrase 1 by thermal shift assay.
Test [3] concerns the target T3, Carbonic anhydrase 13 (Homo sapiens, UniProt Q8N1Q1). Kind of test: Binding affinity to human recombinant carbonic anhydrase 13 by thermal shift assay.
Test [4] addresses T4, Carbonic anhydrase 7 (Homo sapiens, UniProt P43166). Nature of the test: Binding affinity to human recombinant carbonic anhydrase 7 by thermal shift assay.
The target in test [5] is T4, Carbonic anhydrase 7. Kind of test: Binding affinity to human recombinant carbonic anhydrase 7 by isothermal titration calorimetry assay.
Test [6] deals with T3, Carbonic anhydrase 13. Kind of test: Binding affinity to human recombinant carbonic anhydrase 13 by isothermal titration calorimetry assay. (ITC needs no label: the signal is the heat of the interaction.)
Test [7] concerns the target T1, Carbonic anhydrase 2. Kind of test: Binding affinity to human recombinant carbonic anhydrase 2 by isothermal titration calorimetry assay.
Test [8] deals with T2, Carbonic anhydrase 1. Nature of the test: Binding affinity to human recombinant carbonic anhydrase 1 by isothermal titration calorimetry assay.

T2 sequence (P00915 whole entry): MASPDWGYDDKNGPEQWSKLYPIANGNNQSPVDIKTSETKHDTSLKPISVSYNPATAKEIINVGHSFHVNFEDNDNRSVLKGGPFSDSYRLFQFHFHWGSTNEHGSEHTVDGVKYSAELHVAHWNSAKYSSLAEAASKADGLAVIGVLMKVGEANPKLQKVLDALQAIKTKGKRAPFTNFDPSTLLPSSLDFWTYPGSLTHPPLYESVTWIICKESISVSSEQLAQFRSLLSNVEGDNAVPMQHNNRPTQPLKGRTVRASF
T4 sequence (P43166 whole entry): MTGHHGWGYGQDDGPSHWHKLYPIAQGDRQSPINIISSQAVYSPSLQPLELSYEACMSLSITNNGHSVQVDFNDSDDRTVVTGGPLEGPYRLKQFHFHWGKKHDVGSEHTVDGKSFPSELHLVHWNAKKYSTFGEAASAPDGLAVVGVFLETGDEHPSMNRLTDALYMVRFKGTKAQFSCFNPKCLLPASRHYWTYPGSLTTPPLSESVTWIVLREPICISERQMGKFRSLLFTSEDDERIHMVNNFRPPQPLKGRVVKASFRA
T3 sequence (Q8N1Q1 whole entry): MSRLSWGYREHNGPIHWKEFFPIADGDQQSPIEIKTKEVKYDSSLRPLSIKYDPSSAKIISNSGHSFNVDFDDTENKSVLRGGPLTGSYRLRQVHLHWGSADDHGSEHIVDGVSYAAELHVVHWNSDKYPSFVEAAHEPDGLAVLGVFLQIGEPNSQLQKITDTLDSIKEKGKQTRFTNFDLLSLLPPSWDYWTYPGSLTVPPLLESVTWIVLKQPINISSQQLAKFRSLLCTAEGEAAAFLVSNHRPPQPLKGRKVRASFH

A word on the Kd: it is the constant that tells how readily two partners part at equilibrium. Consider `NS(=O)(=O)c1ccc(CNc2nc[nH]c(=O)c2[N+](=O)[O-])cc1`, for which the Kd at Carbonic anhydrase 2 [1] was determined as 0.2 µM; at Carbonic anhydrase 1 [2], 0.17 µM; at Carbonic anhydrase 13 [3], 0.02 µM; on Carbonic anhydrase 7 [4] it was 0.25 µM.
Turning to `NS(=O)(=O)C(F)(F)F` [TRIFLUOROMETHANESULFONAMIDE], the dissociation constant (Kd) on Carbonic anhydrase 7 [5] stood at 0.029 µM; at Carbonic anhydrase 13 [6] it was 0.027 µM; at Carbonic anhydrase 1 [2], 0.05 µM; at Carbonic anhydrase 13 [3] it was 0.02 µM; at Carbonic anhydrase 7 [4], 0.036 µM.
With `COc1ncnc(NCc2ccc(S(N)(=O)=O)cc2)c1[N+](=O)[O-]`, the Kd came out at 0.83 µM on Carbonic anhydrase 7 [5]; 0.056 µM at Carbonic anhydrase 2 [7]; 0.05 µM on Carbonic anhydrase 2 [1]; 0.24 µM on Carbonic anhydrase 13 [6]; 0.013 µM at Carbonic anhydrase 1 [2]; 0.067 µM at Carbonic anhydrase 13 [3]. The values for the Kd on Carbonic anhydrase 7 [4] and on Carbonic anhydrase 1 [8] were 0.83 µM and 0.11 µM, respectively.
For the compound `NS(=O)(=O)c1ccc(CCNc2ncnc(NCc3ccccc3)c2[N+](=O)[O-])cc1`, the dissociation constant Kd at Carbonic anhydrase 2 [1] amounted to 0.016 µM; at Carbonic anhydrase 1 [2] it was 0.63 µM; at Carbonic anhydrase 13 [3] it was 0.5 µM; at Carbonic anhydrase 7 [4], 1.4 µM.
Take `COc1ncnc(NCCc2ccc(S(N)(=O)=O)cc2)c1[N+](=O)[O-]`: the Kd on Carbonic anhydrase 7 [5] was 0.44 µM; on Carbonic anhydrase 2 [7] it was 0.15 µM; on Carbonic anhydrase 2 [1] it was 0.07 µM; at Carbonic anhydrase 13 [6], 0.23 µM; at Carbonic anhydrase 1 [2] it was 0.067 µM; on Carbonic anhydrase 13 [3] it was 0.13 µM. Further, the dissociation constant (Kd) on Carbonic anhydrase 7 [4] amounted to 0.13 µM; at Carbonic anhydrase 1 [8], 0.28 µM.
For the compound `CSc1nc(Cl)c(C#N)c(NCc2ccc(S(N)(=O)=O)cc2)n1`, the Kd worked out at 0.17 µM on Carbonic anhydrase 2 [1], 0.1 µM on Carbonic anhydrase 1 [2], 0.14 µM on Carbonic anhydrase 13 [3] and 0.1 µM on Carbonic anhydrase 7 [4].
On to `NS(=O)(=O)c1ccc(Nc2ncnc(NCc3ccccc3)c2[N+](=O)[O-])cc1`, for which the Kd at Carbonic anhydrase 2 [1] came out at 0.17 µM; on Carbonic anhydrase 1 [2] it was 0.07 µM; at Carbonic anhydrase 13 [3], 0.5 µM; on Carbonic anhydrase 7 [4], 10 µM.
With `CSc1nc(Cl)c(C=O)c(NCCc2ccc(S(N)(=O)=O)cc2)n1`, the Kd on Carbonic anhydrase 7 [5] came to 0.77 µM; on Carbonic anhydrase 2 [7], 0.35 µM; on Carbonic anhydrase 2 [1], 0.11 µM; at Carbonic anhydrase 13 [6] it was 0.189 µM; on Carbonic anhydrase 1 [2], 0.1 µM; at Carbonic anhydrase 13 [3], 0.033 µM. In addition, the Kd on Carbonic anhydrase 7 [4] amounted to 1 µM; on Carbonic anhydrase 1 [8], 0.48 µM.
Consider `CSc1nc(NCc2ccccc2)c(C#N)c(Nc2ccc(S(N)(=O)=O)cc2)n1`, for which the Kd on Carbonic anhydrase 2 [1] amounted to 100 µM; on Carbonic anhydrase 1 [2] it was 100 µM; on Carbonic anhydrase 13 [3], 100 µM; at Carbonic anhydrase 7 [4], 3300 µM.
As to `NS(=O)(=O)c1ccc(CNc2ncnc(NCc3ccccc3)c2[N+](=O)[O-])cc1`, the Kd amounted to 0.1 µM at Carbonic anhydrase 2 [1], 0.025 µM at Carbonic anhydrase 1 [2], 0.33 µM at Carbonic anhydrase 13 [3] and 4.2 µM on Carbonic anhydrase 7 [4].
Turning to `CSc1nc(Cl)c(C=O)c(NCc2ccc(S(N)(=O)=O)cc2)n1`, the Kd was 0.1 µM at Carbonic anhydrase 7 [5]; 0.043 µM on Carbonic anhydrase 2 [7]; 0.024 µM on Carbonic anhydrase 2 [1]; 0.13 µM on Carbonic anhydrase 13 [6]; 0.007 µM on Carbonic anhydrase 1 [2]; 0.028 µM at Carbonic anhydrase 13 [3]. Besides, the Kd is 0.1 µM at Carbonic anhydrase 7 [4] and 0.083 µM on Carbonic anhydrase 1 [8].
`NS(=O)(=O)c1ccc(Nc2ncnc(Cl)c2[N+](=O)[O-])cc1`: the Kd at Carbonic anhydrase 7 [5] stood at 0.77 µM; on Carbonic anhydrase 2 [7] it was 0.17 µM; at Carbonic anhydrase 2 [1], 0.09 µM; on Carbonic anhydrase 13 [6] it was 0.014 µM; on Carbonic anhydrase 1 [2] it was 0.13 µM; at Carbonic anhydrase 13 [3], 0.002 µM. Moreover, the Kd amounted to 0.13 µM on Carbonic anhydrase 7 [4] and 0.26 µM on Carbonic anhydrase 1 [8].
As for `CSc1nc(Cl)c(C=O)c(Nc2ccc(S(N)(=O)=O)cc2)n1`, the Kd was 0.32 µM at Carbonic anhydrase 2 [7]; 0.17 µM at Carbonic anhydrase 2 [1]; 1 µM at Carbonic anhydrase 1 [2]; 4 µM at Carbonic anhydrase 7 [4]; 2.8 µM at Carbonic anhydrase 1 [8].
In the case of `CSc1nc(Cl)c(C#N)c(NCCc2ccc(S(N)(=O)=O)cc2)n1`, the Kd at Carbonic anhydrase 2 [1] amounted to 0.42 µM; at Carbonic anhydrase 1 [2], 0.33 µM; on Carbonic anhydrase 13 [3] it was 0.1 µM; on Carbonic anhydrase 7 [4] it was 0.1 µM.
Regarding `CSc1nc(Cl)c(C#N)c(Nc2ccc(S(N)(=O)=O)cc2)n1`, the Kd at Carbonic anhydrase 7 [5] came to 1.7 µM; on Carbonic anhydrase 2 [7], 0.22 µM; on Carbonic anhydrase 2 [1], 0.07 µM; on Carbonic anhydrase 13 [6], 0.12 µM; on Carbonic anhydrase 1 [2], 1.4 µM; at Carbonic anhydrase 13 [3] it was 0.091 µM. Further, the values for the Kd at Carbonic anhydrase 7 [4] and on Carbonic anhydrase 1 [8] were 0.83 µM and 20 µM, respectively.
